Test results reported in patent US20150072967A1, “TAUROURSODEOXYCHOLIC ACID ATTENTUATES OR ABOLISHES FORMATION AND DEPOSITION OF AMYLOID-B PEPTIDE” (Metselex, Inc., priority 2012, published 2015).

What was measured:
[1] = tested on: APP/PS1 mice; test: Thioflavin T staining of amyloid plaque burden in brain sections; format: in vivo, mouse
Procedure: (§1) Transgenic mice and TUDCA treatment. APP/PS1 double-transgenic mice express human APP containing the KM670/671NL Swedish double mutation and human PS 1 carrying the L166P mutation under the control of a neuron-specific murine Thy-1 minigene promoter. The two transgenes cosegregate in these mice. APP/PS1 mice were maintained on a C57BL/6J genetic background and genotyped by PCR analysis of genomic DNA from tail biopsies. All animals were kept in standard animal cages under conventional laboratory conditions (12 h light/dark cycle, 22° C.), with ad libitum access to food and water. […]
Image analysis and semiquantification of immunofluorescence. Images were acquired with an Axioskop fluorescence microscope (Carl Zeiss GmbH, Hamburg, Germany). Semiquantitative analysis of mean fluorescence intensities (MFIs) of GFAP, Iba-I, and MAP2 were performed using NIH Image J software. […] An intensity threshold was set and kept constant for all images analyzed. MFI per square millimeter area was calculated by dividing the MFI units by the area of outlined regions and is presented as a bar graph. The total number of thioflavin- and Aβ-positive plaques in the hippocampus and frontal cortex was counted and presented as plaque number per square millimeter.

[2] = tested on: APP/PS1 mice; test: Aβ immunohistochemistry (6E10), Aβ plaque number in brain; format: in vivo, mouse; conditions: TUDCA-treated APP/PS1 mice vs untreated transgenic mice
Procedure: as §1, with “water. The animals were randomized for therapy trials and coded, and the operators remained double blinded to which treatment they received, until the completion of data collection. Male APP/PS1 transgenic mice and wild-type littermates were randomly assigned into four groups: TUDCA-treated and untreated (control) APP/PS1 mice and TUDCA-treated and untreated (control) wild-type mice.” for “water.”
(§2) Image analysis and semiquantification of immunofluorescence. Images were acquired with an Axioskop fluorescence microscope (Carl Zeiss GmbH, Hamburg, Germany). Semiquantitative analysis of mean fluorescence intensities (MFIs) of GFAP, Iba-I, and MAP2 were performed using NIH Image J software. […] An intensity threshold was set and kept constant for all images analyzed. […]

[3] = tested on: APP/PS1 mice; test: Recognition, spatial and contextual fear memory; format: in vivo, mouse; conditions: transgenic mice vs control transgenic mice
Procedure: Transgenic mice and TUDCA treatment. APP/PS1 double-transgenic mice express human APP containing the KM670/671NL Swedish double mutation and human PS 1 carrying the L166P mutation under the control of a neuron-specific murine Thy-1 minigene promoter. The two transgenes cosegregate in these mice. APP/PS1 mice were maintained on a C57BL/6J genetic background and genotyped by PCR analysis of genomic DNA from tail biopsies. All animals were kept in standard animal cages under conventional laboratory conditions (12 h light/dark cycle, 22° C.), with ad libitum access to food and water. The animals were randomized for therapy trials and coded, and the operators remained double blinded to which treatment they received, until the completion of data collection. Male APP/PS1 transgenic mice and wild-type littermates were randomly assigned into four groups: TUDCA-treated and untreated (control) APP/PS1 mice and TUDCA-treated and untreated (control) wild-type mice. Animals were fed a diet of standard laboratory chow supplemented with either 0.4% (wt/wt) TUDCA (sodium salt; Prodotti Chimici e Alimentari S.p.A., Basaluzzo, Italy), or no bile acid, custom made by Harlan (Harlan Laboratories Models, S.L., Barcelona, Spain). Treatment was started when the mice were 2 months old and continued for 6 months. […]

[4] = tested on: APP/PS1 mice; test: GFAP immunofluorescence (activated astrocytes); format: in vivo, mouse; conditions: hippocampus and frontal cortex; TUDCA-treated APP/PS1 mice; p<0.05
Procedure: as §1, with “water. The animals were randomized for therapy trials and coded, and the operators remained double blinded to which treatment they received, until the completion of data collection. Male APP/PS1 transgenic mice and wild-type littermates were randomly assigned into four groups: TUDCA-treated and untreated (control) APP/PS1 mice and TUDCA-treated and untreated (control) wild-type mice.” for “water.”
as §2

[5] = tested on: APP/PS1 mice; test: Iba-I immunostaining (activated microglia); format: in vivo, mouse
Procedure: as §1, with “water. The animals were randomized for therapy trials and coded, and the operators remained double blinded to which treatment they received, until the completion of data collection. Male APP/PS1 transgenic mice and wild-type littermates were randomly assigned into four groups: TUDCA-treated and untreated (control) APP/PS1 mice and TUDCA-treated and untreated (control) wild-type mice.” for “water.”
(§3) Image analysis and semiquantification of immunofluorescence. Images were acquired with an Axioskop fluorescence microscope (Carl Zeiss GmbH, Hamburg, Germany). Semiquantitative analysis of mean fluorescence intensities (MFIs) of GFAP, Iba-I, and MAP2 were performed using NIH Image J software. […]

[6] = tested on: APP/PS1 mice; test: MAP2 immunoreactivity (neuronal integrity); format: in vivo, mouse
Procedure: as §1, with “water. The animals were randomized for therapy trials and coded, and the operators remained double blinded to which treatment they received, until the completion of data collection. Male APP/PS1 transgenic mice and wild-type littermates were randomly assigned into four groups: TUDCA-treated and untreated (control) APP/PS1 mice and TUDCA-treated and untreated (control) wild-type mice.” for “water.”
as §3

[7] = tested on: CTGF, A2M, APOE, SORLA expression; test: Real-time PCR of lipid-metabolism mediators in brain; format: in vivo, mouse
Procedure: (§4) Transgenic mice and TUDCA treatment. APP/PS1 double-transgenic mice express human APP containing the KM670/671NL Swedish double mutation and human PS 1 carrying the L166P mutation under the control of a neuron-specific murine Thy-1 minigene promoter. The two transgenes cosegregate in these mice. APP/PS1 mice were maintained on a C57BL/6J genetic background and genotyped by PCR analysis of genomic DNA from tail biopsies. All animals were kept in standard animal cages under conventional laboratory conditions (12 h light/dark cycle, 22° C.), with ad libitum access to food and water. The animals were randomized for therapy trials and coded, and the operators remained double blinded to which treatment they received, until the completion of data collection. Male APP/PS1 transgenic mice and wild-type littermates were randomly assigned into four groups: TUDCA-treated and untreated (control) APP/PS1 mice and TUDCA-treated and untreated (control) wild-type mice. Animals were fed a diet of standard laboratory chow supplemented with either 0.4% (wt/wt) TUDCA (sodium salt; Prodotti Chimici e Alimentari S.p.A., Basaluzzo, Italy), or no bile acid, custom made by Harlan (Harlan Laboratories Models, S.L., Barcelona, Spain). Treatment was started when the mice were 2 months old and continued for 6 months. The dose and duration of TUDCA, whose pharmacokinetics has been extensively studied in rodents, were chosen based on pilot studies using APP/PS1 mice and other animal studies.
Real-time PCR. Total RNA from dissected hippocampus and frontal cortex was isolated with TRIzol (Invitrogen), according to the manufacturer's instructions. Samples were homogenized in TRIzol using a motor-driven Bio-vortexer (No 1083; Biospec Products, Bartlesfield, Okla.) and disposable RNAse/DNAse free sterile pestles (Thermo Scientific). […] Real-time quantitative PCR analysis was performed in the 7300 Real-Time PCR System (Applied Biosystems, Foster City, Calif., USA), using SYBR Green PCR master mix (Fermentas International Inc., Glen Burnie, Md., USA). Triplicate reactions were run per sample. The expression levels relative to GAPDH were calculated using the ΔΔCt method. TUDCA-untreated wild-type mice were used as the calibrator. The n-fold change in expression was obtained using the formula: 2^−ΔΔCt.

[8] = tested on: γ-secretase; test: γ-secretase activity / APP processing by immunoblot of APP-CTFs and total Aβ; format: in vivo, mouse; conditions: brain tissue
Procedure: as §4
γ-secretase activity. Assessment of γ-secretase activity was performed by detection of the ˜7 KDa carboxyl terminal fragment (CTF)-γ cleavage product of APP. Briefly, 60 μg of total protein extracts were resolved electrophoretically in 10-20% Tris-Tricine gels (BioRad), and CTF-γ (and CTF-β) identified using an anti-APP, C-terminal rabbit polyclonal antibody (Sigma-Aldrich; 1:2000). After stripping, membranes were incubated with the primary mouse monoclonal antibody reactive to Aβ (6E10; Signet; 1:1000) to detect total Aβ peptide. Immunoreactivities were visualized as described above.

[9] = tested on: APP/PS1 mice; test: Sandwich ELISA of Aβ1-40 and Aβ1-42 in brain extracts; format: in vivo, mouse; conditions: hippocampus and frontal cortex of APP/PS1 mice; p<0.01
Procedure: as §1, with “water. The animals were randomized for therapy trials and coded, and the operators remained double blinded to which treatment they received, until the completion of data collection. Male APP/PS1 transgenic mice and wild-type littermates were randomly assigned into four groups: TUDCA-treated and untreated (control) APP/PS1 mice and TUDCA-treated and untreated (control) wild-type mice.” for “water.”
Sandwich ELISA. […] Total Aβ1-40 or Aβ1-42 content was measured by sandwich ELISA (Millipore) according to the manufacturer's instructions. Values were normalized to the respective total protein concentration and expressed as % of wild-type control.

[10] = tested on: hepatocytes; conditions: DNA microarray; cited from earlier work
[11] = cited from earlier work
[12] = APP/PS1 mice hippocampus, p<0.05
[13] = TUDCA-treated APP/PS1 mice vs control transgenic mice

C[C@H](CCC(=O)NCCS(=O)(=O)O)[C@H]1CC[C@H]2[C@@H]3[C@@H](O)C[C@@H]4C[C@H](O)CC[C@]4(C)[C@H]3CC[C@]12C [TUDCA, tauroursodeoxycholic acid]
amyloid deposits (thioflavin staining) ([1]; TUDCA-treated wild-type mice): absent | thioflavin plaque number ([1]; hippocampus and frontal cortex, APP/PS1 mice fed 0.4% (wt/wt) TUDCA for 6 months vs control transgenic mice, p<0.01): marked reduction | decrease of Aβ plaque number ([2]; frontal cortex, p<0.05): 40% | decrease of Aβ plaque number ([2]; hippocampus, p<0.01): ~65% | recognition, and spatial and contextual fear memory [3]: improved | GFAP immunoreactivity [4]: decreased | Iba-I immunoreactivity ([5]; TUDCA-treated APP/PS1 mice relative to control APP/PS1 mice, p<0.05): significantly less | reactive microglia around amyloid plaques (Iba-I/thioflavin double-staining) ([5]; brains of TUDCA-treated APP/PS1 mice vs control APP/PS1 mice): fewer reactive microglia | integrity of the neuronal fibers around amyloid plaques (MAP2/amyloid double staining) ([6]; brains of TUDCA-treated APP/PS1 mice): significant improvement | MAP2 immunoreactivity ([6]; hippocampus and frontal cortex of APP/PS1 mice, p<0.05): prevented the loss | A2M expression (mRNA) ([7]; APP/PS1 mice frontal cortex): trend for decreased | APOE expression (mRNA) ([7]; APP/PS1 mice frontal cortex): trend for decreased | CTGF expression (mRNA) ([7]; APP/PS1 mice frontal cortex, p<0.05): significantly decreased | SORLA expression (mRNA) ([7]; APP/PS1 mice hippocampus): slightly increasing | A2M expression (mRNA) [7, 12]: significantly decreased | APOE expression (mRNA) [7, 12]: significantly decreased | CTGF expression (mRNA) [7, 12]: significantly decreased | CTF-β levels ([8]; TUDCA-fed transgenic mice vs control transgenic mice): decreased | total Aβ levels ([8]; TUDCA-treated APP/PS1 mice vs control APP/PS1 mice): decreased | full-length APP levels [8, 13]: remained unchanged | production of CTF-γ [8, 13]: decrease | Aβ1-40 levels [9]: significantly decreased | Aβ1-42 levels [9]: significantly decreased | downregulation of A2M expression [10]: greater than 10 fold | downregulation of CTGF expression [10]: greater than 10 fold | oral bioavailability [11]: orally bioavailable
